Results taken from the supplement of paper PMC10307832.

Columns and labels:
Test in all cases: relative viability (nuclei count vs DMSO), 5 days (fraction); higher = more cells survive
[1] = compound: C1CC(C2=C(C1)C3=C(N2)C=CC(=C3)Cl)C(=O)N [Selisistat] + Cc1cc(Nc2cc(N3CCN(C)CC3)nc(Sc3ccc(NC(=O)C4CC4)cc3)n2)n[nH]1 [Tozasertib] (partner 0.1 µM)
Summary of the method: (§1)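 Lung cancer cell lines in 1536-well plates got either a single drug or a fixed anchor-drug dose together with five library-drug doses (not always all listed) in √10 steps, by pin tool, on the day after seeding. Nuclei were counted after 5 days, and relative viability is the treated-to-vehicle ratio of nuclei counts. Values are medians of duplicate plates.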

[2] = compound: c1ccc2c(CCNc3ccc(Nc4ccncc4)cc3)c[nH]c2c1 [Serdemetan] + CC(C)C[C@H](NC(=O)[C@H](Cc1ccccc1)NC(=O)c1cnccn1)B(O)O [Bortezomib] (partner 0.002 µM)
Summary of the method: as §1

[3] = compound: c1ccc2c(CCNc3ccc(Nc4ccncc4)cc3)c[nH]c2c1 [Serdemetan] + COc1cc2c(Oc3ccc(NC(=O)C4(C(=O)Nc5ccc(F)cc5)CC4)cc3F)ccnc2cc1OCCCN1CCOCC1 [Foretinib] (partner 0.25 µM)
Summary of the method: as §1

[4] = compound: c1ccc2c(CCNc3ccc(Nc4ccncc4)cc3)c[nH]c2c1 [Serdemetan] + C[C@]1(O)C[C@@H](c2nc(-c3ccc4ccc(-c5ccccc5)nc4c3)c3c(N)nccn32)C1 [Linsitinib] (partner 1 µM)
Summary of the method: as §1

| Cell Line | relative viability ([1]; first compound 0.4 µM) | relative viability ([1]; first compound 1.265 µM) | relative viability ([1]; first compound 4 µM) | relative viability ([1]; first compound 12.65 µM) | relative viability ([1]; first compound 40 µM) | relative viability ([2]; first compound 0.04 µM) | relative viability ([2]; first compound 0.1265 µM) | relative viability ([2]; first compound 0.4 µM) | relative viability ([2]; first compound 1.265 µM) | relative viability ([2]; first compound 4 µM) | relative viability ([3]; first compound 0.04 µM) | relative viability ([3]; first compound 0.1265 µM) | relative viability ([3]; first compound 0.4 µM) | relative viability ([3]; first compound 1.265 µM) | relative viability ([3]; first compound 4 µM) | relative viability ([4]; first compound 0.04 µM) | relative viability ([4]; first compound 0.1265 µM) | relative viability ([4]; first compound 0.4 µM) | relative viability ([4]; first compound 1.265 µM) | relative viability ([4]; first compound 4 µM) |
| --- | --- | --- | --- | --- | --- | --- | --- | --- | --- | --- | --- | --- | --- | --- | --- | --- | --- | --- | --- | --- |
| 201T | 0.945 | 0.95 | 0.873 | 0.919 | 0.935 | 1.08 | 1.14 | 1.1 | 1.05 | 1.06 | 1.14 | 1.13 | 1.02 | 0.636 | 0.73 | 1.04 | 1.03 | 1.01 | 1.02 | 0.781 |
| A549 |  |  |  |  |  |  |  |  |  |  | 0.964 | 0.969 | 1.02 | 0.627 | 0.177 | 0.595 | 0.578 | 0.631 | 0.42 | 0.179 |
| A-427 | 0.207 | 0.194 | 0.182 | 0.226 | 0.183 | 0.954 | 1.03 | 0.959 | 0.662 | 0.598 | 1.01 | 0.933 | 1.1 | 0.778 | 0.469 | 1.06 | 1.04 | 1.07 | 0.883 | 0.576 |
| ABC-1 | 0.184 | 0.179 | 0.17 | 0.176 | 0.149 | 0.294 | 0.328 | 0.317 | 0.307 | 0.278 | 0.855 | 1.08 | 0.766 | 0.604 | 0.418 | 0.85 | 0.87 | 0.738 | 0.6 | 0.489 |
| BEN | 0.55 | 0.406 | 0.385 | 0.505 | 0.471 | 0.785 | 0.924 | 0.766 | 0.48 | 0.763 | 0.631 | 0.682 | 0.794 |  | 0.609 | 0.857 | 0.929 | 0.956 | 0.875 | 0.679 |
| CAL-12T | 0.306 | 0.239 | 0.328 | 0.27 | 0.255 |  | 1.11 |  | 0.931 | 1.04 | 1.07 | 1.15 | 1.04 | 1.03 | 0.969 | 0.77 | 0.793 | 0.698 | 0.864 | 0.651 |
| COR-L23 | 0.243 | 0.241 | 0.218 | 0.171 | 0.183 | 0.918 | 0.863 | 0.996 | 0.669 | 0.978 | 0.989 | 1.01 | 1.07 | 0.847 | 0.843 | 0.906 | 0.752 | 0.891 | 0.688 | 0.788 |
| COR-L 105 | 0.344 | 0.344 |  | 0.315 | 0.336 | 0.775 | 0.764 | 0.563 | 0.7 | 0.745 | 0.979 | 0.866 | 0.9 | 0.839 | 0.772 | 0.86 | 1.14 | 0.847 | 1.04 | 0.845 |
| Calu-6 |  |  |  |  |  | 1.1 | 0.969 | 1.04 | 0.864 | 0.672 | 0.866 | 0.819 | 0.839 | 0.567 | 0.472 | 0.895 | 0.962 | 0.958 | 0.913 | 0.698 |
